Measured values published in ChEMBL document CHEMBL4219273, “Discovery of a novel olefin derivative as a highly potent and selective acetyl-CoA carboxylase 2 inhibitor with in vivo efficacy” (Bioorg Med Chem Lett, 2018).

Key:
Homo sapiens = species: Homo sapiens; assay: Selectivity ratio of IC50 for recombinant human ACC1 to IC50 for recombinant human ACC2
Acetyl-CoA carboxylase 2 = Acetyl-CoA carboxylase 2 (Homo sapiens, UniProt O00763); assay: Inhibition of recombinant human ACC2 assessed as reduction in conversion of acetyl-CoA to malonyl-CoA incubated for 1 to 3 hrs with substrate by MALDI-TOF-MS analysis
Sequence of Acetyl-CoA carboxylase 2 (O00763 whole entry): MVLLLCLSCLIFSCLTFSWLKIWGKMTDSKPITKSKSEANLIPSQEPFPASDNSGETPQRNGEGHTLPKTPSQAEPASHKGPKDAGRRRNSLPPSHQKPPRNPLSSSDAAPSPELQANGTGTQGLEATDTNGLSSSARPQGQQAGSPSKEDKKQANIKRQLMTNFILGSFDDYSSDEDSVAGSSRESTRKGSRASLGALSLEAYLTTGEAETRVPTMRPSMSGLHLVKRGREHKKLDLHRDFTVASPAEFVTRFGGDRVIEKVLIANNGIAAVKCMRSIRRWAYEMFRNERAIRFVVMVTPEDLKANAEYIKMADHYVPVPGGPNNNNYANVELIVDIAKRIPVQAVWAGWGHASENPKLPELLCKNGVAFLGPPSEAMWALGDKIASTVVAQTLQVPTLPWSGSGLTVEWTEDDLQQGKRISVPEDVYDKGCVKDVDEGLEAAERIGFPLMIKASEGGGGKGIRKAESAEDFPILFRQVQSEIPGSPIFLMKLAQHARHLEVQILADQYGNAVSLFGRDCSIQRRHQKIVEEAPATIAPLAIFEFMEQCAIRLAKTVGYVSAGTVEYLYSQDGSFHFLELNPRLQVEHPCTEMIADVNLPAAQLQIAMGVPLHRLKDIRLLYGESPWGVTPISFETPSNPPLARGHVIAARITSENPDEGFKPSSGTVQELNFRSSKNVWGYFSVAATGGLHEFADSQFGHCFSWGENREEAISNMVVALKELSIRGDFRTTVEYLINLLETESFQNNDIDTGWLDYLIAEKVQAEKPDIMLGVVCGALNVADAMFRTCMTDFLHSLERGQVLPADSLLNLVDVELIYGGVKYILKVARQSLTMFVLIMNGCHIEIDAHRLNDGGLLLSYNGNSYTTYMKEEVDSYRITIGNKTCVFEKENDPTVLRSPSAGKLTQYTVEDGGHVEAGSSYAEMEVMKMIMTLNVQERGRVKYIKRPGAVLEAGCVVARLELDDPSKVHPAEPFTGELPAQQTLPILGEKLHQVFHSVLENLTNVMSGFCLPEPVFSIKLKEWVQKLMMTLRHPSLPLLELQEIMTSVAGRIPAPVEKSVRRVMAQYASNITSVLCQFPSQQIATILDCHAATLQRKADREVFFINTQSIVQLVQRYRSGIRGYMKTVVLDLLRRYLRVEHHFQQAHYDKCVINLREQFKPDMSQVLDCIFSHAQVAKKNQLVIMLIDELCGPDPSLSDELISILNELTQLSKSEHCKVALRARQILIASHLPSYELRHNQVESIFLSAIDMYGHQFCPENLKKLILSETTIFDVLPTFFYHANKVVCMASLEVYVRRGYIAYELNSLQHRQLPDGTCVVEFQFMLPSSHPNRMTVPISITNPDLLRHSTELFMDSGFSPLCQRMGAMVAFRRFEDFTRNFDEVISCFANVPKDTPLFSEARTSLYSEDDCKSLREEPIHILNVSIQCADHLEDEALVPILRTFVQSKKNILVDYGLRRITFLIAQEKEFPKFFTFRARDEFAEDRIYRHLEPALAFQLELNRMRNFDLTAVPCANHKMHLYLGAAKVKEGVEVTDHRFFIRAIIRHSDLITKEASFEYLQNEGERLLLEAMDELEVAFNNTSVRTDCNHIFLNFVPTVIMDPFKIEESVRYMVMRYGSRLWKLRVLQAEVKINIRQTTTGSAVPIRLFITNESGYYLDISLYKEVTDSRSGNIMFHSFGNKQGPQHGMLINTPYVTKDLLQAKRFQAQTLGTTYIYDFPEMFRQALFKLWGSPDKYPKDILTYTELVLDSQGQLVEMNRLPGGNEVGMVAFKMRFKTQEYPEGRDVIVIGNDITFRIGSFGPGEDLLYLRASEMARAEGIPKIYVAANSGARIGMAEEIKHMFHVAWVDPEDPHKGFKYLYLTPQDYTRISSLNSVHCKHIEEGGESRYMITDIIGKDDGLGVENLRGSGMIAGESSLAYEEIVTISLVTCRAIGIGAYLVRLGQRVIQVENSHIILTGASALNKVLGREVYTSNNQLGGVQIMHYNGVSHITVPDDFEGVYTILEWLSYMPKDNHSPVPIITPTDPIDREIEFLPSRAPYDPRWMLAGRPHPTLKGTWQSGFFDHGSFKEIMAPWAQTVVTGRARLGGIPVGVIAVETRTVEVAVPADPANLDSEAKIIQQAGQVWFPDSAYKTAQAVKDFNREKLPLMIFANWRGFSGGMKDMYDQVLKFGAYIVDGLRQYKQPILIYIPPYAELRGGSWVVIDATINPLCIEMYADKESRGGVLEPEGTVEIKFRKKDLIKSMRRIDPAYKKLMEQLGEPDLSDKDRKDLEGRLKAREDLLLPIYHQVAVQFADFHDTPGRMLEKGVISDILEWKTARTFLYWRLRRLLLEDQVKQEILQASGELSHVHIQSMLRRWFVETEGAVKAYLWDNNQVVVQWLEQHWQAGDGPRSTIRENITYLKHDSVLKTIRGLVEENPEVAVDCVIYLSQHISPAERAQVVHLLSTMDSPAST

Cytochrome P450 3A4 = Cytochrome P450 3A4 (Homo sapiens, UniProt P08684); assay: Inhibition of CYP3A4 (unknown origin); type: ADME
Sequence of Cytochrome P450 3A4 (P08684 whole entry): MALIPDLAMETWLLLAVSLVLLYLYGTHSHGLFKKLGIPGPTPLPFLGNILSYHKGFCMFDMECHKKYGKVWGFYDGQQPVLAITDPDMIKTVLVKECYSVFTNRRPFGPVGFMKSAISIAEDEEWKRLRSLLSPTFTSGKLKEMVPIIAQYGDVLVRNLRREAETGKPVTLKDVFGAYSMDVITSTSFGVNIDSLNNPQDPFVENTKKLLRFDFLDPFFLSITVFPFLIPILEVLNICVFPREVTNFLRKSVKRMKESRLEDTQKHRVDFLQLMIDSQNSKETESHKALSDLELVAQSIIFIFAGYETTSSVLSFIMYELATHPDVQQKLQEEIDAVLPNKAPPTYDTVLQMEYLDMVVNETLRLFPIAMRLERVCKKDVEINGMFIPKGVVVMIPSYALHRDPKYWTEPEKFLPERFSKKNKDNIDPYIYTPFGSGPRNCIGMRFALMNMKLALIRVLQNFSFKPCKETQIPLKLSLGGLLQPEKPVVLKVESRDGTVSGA

Cytochrome P450 2C19 = Cytochrome P450 2C19 (Homo sapiens, UniProt P33261); assay: Inhibition of CYP2C19 (unknown origin); type: ADME
Sequence of Cytochrome P450 2C19 (P33261 whole entry): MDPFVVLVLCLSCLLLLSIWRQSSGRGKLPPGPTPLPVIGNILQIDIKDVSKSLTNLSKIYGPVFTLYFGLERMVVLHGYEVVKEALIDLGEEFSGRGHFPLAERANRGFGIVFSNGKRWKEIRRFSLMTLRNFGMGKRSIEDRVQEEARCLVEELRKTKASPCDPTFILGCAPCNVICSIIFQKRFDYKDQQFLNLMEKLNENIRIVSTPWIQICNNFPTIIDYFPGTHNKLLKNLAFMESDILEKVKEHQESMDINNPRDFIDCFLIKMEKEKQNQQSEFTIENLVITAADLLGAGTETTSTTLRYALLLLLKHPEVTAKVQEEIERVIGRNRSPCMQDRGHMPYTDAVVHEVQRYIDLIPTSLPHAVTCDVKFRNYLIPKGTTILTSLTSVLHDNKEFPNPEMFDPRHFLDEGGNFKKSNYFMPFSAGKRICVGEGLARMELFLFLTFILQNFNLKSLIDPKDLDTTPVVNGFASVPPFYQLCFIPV

Acetyl-CoA carboxylase 1 = Acetyl-CoA carboxylase 1 (Homo sapiens, UniProt Q13085); assay: Inhibition of recombinant human ACC1 assessed as reduction in conversion of acetyl-CoA to malonyl-CoA incubated for 1 to 3 hrs with substrate by MALDI-TOF-MS analysis
Cytochrome P450 2D6 = Cytochrome P450 2D6 (Homo sapiens, UniProt P10635); assay: Inhibition of CYP2D6 (unknown origin); type: ADME
Sequence of Cytochrome P450 2D6 (P10635 whole entry): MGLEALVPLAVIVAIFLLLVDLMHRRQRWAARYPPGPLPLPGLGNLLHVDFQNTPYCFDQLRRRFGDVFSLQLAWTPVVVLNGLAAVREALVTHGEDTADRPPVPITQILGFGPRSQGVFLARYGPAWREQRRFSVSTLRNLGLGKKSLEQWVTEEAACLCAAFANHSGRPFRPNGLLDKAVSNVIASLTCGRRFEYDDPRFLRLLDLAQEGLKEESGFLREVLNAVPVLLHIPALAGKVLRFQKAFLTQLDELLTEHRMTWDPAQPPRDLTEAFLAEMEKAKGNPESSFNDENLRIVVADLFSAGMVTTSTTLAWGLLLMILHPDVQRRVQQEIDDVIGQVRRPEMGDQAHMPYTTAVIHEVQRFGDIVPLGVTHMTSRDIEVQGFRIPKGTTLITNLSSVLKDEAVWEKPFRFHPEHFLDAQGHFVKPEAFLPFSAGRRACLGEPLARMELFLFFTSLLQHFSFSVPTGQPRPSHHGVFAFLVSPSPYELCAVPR

Cytochrome P450 2C9 = Cytochrome P450 2C9 (Homo sapiens, UniProt P11712); assay: Inhibition of CYP2C9 (unknown origin); type: ADME
Sequence of Cytochrome P450 2C9 (P11712 whole entry): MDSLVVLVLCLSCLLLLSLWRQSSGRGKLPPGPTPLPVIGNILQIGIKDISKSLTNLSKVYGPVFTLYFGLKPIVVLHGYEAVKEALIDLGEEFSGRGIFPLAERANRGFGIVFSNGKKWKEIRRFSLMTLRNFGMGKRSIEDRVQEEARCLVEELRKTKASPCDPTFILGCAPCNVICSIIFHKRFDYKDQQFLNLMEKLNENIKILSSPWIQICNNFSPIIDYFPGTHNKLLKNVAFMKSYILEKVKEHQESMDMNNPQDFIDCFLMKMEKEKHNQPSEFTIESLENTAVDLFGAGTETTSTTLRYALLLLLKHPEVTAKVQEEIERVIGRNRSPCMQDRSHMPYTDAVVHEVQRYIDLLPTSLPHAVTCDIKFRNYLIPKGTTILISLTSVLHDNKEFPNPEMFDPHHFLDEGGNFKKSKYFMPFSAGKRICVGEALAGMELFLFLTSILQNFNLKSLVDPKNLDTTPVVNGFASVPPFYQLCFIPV

Cytochrome P450 1A2 = target: T1, Cytochrome P450 1A2 (Homo sapiens, UniProt P05177); assay: Inhibition of CYP1A2 (unknown origin); type: ADME
T1 sequence (P05177 whole entry): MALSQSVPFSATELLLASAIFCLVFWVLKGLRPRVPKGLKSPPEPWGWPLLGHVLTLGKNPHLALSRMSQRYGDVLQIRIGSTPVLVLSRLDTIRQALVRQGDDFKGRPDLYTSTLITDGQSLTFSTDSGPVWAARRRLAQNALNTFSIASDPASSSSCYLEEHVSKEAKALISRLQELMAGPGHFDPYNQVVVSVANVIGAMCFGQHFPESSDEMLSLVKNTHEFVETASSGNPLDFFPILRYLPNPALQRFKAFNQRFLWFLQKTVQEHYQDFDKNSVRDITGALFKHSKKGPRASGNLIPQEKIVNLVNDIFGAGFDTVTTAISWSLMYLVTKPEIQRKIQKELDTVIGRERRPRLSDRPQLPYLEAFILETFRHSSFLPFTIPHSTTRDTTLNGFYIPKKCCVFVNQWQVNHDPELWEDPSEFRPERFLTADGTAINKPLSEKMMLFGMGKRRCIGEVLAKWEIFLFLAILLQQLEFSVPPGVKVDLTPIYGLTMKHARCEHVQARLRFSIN

[1] = Cmax in rat at 50 mg/kg/day, po administered for 4 consecutive days measured on day 1; type: ADME, organism-based; parameters: dose 50 mg/kg/day, route oral; conditions: in vivo
[2] = Metabolic stability in human liver microsomes assessed as parent compound remaining after 30 mins; type: ADME, microsome; conditions: read-out: Stability
Rattus norvegicus [3] = assay: Toxicity in rat assessed as histopathological lesions in heart at 50 mg/kg/day, po administered for 4 consecutive days; type: organism-based; conditions: in vivo
[4] = Cmax in C57BL/6 mouse at 2.5 mg/kg, po; type: ADME, organism-based; parameters: dose 2.5 mg/kg, route oral; conditions: in vivo
[5] = AUC (0 to 24 hrs) in rat at 50 mg/kg/day, po administered for 4 consecutive days measured on day 1; type: ADME, organism-based; parameters: dose 50 mg/kg/day, time < 24 hr, route oral; conditions: in vivo
[6] = Metabolic stability in rat liver microsomes assessed as parent compound remaining after 30 mins; type: ADME, microsome; conditions: read-out: Stability
[7] = Total clearance in C57BL/6 mouse at 0.2 mg/kg, iv; type: ADME, organism-based; conditions: in vivo
[8] = Plasma concentration in C57BL/6 mouse at 2.5 mg/kg, po measured at 6 hrs post dose by LC-MS analysis; type: ADME, organism-based
[9] = Oral bioavailability in C57BL/6 mouse at 2.5 mg/kg; type: ADME, organism-based; conditions: in vivo
Rattus norvegicus [10] = assay: Toxicity in rat assessed as abnormal clinical signs at 50 mg/kg/day, po administered for 4 consecutive days; type: organism-based; conditions: in vivo
Mus musculus [11] = assay: Suppression of malonyl-CoA levels in C57BL/6 mouse skeletal muscle at 1 mg/kg, po measured at 6 hrs post dose by LC-MS analysis relative to control; type: functional
[12] = AUC in C57BL/6 mouse at 2.5 mg/kg, po; type: ADME, organism-based; conditions: in vivo
[13] = Plasma concentration in C57BL/6 mouse at 1 mg/kg, po measured at 6 hrs post dose by LC-MS analysis; type: ADME, organism-based
Mus musculus [14] = assay: Suppression of malonyl-CoA levels in C57BL/6 mouse skeletal muscle at 2.5 mg/kg, po measured at 6 hrs post dose by LC-MS analysis relative to control; type: functional

Compound	Ratio IC50 (Homo sapiens)	IC50 (Acetyl-CoA carboxylase 2)	IC50 (Cytochrome P450 3A4)	IC50 (Cytochrome P450 2C19)	IC50 (Acetyl-CoA carboxylase 1)	IC50 (Cytochrome P450 2D6)	IC50 (Cytochrome P450 2C9)	IC50 (Cytochrome P450 1A2)	remaining at 0.5 h [2]	remaining at 0.5 h [6]	also measured
CC(=O)N[C@@H](C)/C=C/c1cnc(Oc2ccc(OCC3CC3)cc2Cl)cn1	30	0.025 µM	> 20 µM	> 20 µM	0.75 µM	> 20 µM	> 20 µM	> 20 µM	–	–	–
CC(=O)N[C@@H](C)/C=C/c1cnc(Oc2ccc(OCC3CC3)cc2Cl)nc1	> 2080	0.048 µM	> 20 µM	> 20 µM	> 100 µM	> 20 µM	> 20 µM	> 20 µM	–	–	–
COC(=O)N[C@@H](C)/C=C/c1cnc(Oc2ccc(OC(C)C)cc2)s1	> 1320	0.076 µM	> 20 µM	6.5 µM	> 100 µM	> 20 µM	2.7 µM	> 20 µM	–	–	–
CC(=O)N[C@@H](C)/C=C/c1cnc(Oc2ccc(OC(C)C)cc2)s1	809	0.066 µM	> 20 µM	> 20 µM	53.4 µM	> 20 µM	4.4 µM	> 20 µM	–	–	–
CCOc1nc2ccc(Oc3ccc(/C=C/[C@H](C)NC(C)=O)cn3)c(Cl)c2s1	1030	0.0019 µM	> 20 µM	18 µM	1.95 µM	> 20 µM	13 µM	> 20 µM	91%	100%	Cmax [1]: 34600 ng/mL; Activity (Rattus norvegicus [3]): Non-Toxic; Cmax [4]: 4230 ng/mL; AUC(0-t) at 24 h [5]: 620 µg·h/mL; clearance [7]: 0.354 mL/min/kg; concentration at 6 h [8]: 2620 ng/mL; bioavailability [9]: 83.5%; Activity (Rattus norvegicus [10]): Non-Toxic; Activity (Mus musculus [11]): 20%; AUC [12]: 99.8 µg·h/mL; concentration at 6 h [13]: 1130 ng/mL; Activity (Mus musculus [14]): 41%
CC(=O)N[C@@H](C)/C=C/c1ccc(Oc2ccc3sc(C(C)C)nc3c2Cl)nc1	21	0.04 µM	> 20 µM	11 µM	0.858 µM	> 20 µM	14 µM	> 20 µM	88%	77%	–
CC(=O)N[C@@H](C)/C=C/c1ccc(Oc2ccc3nc(C(C)C)sc3c2C(F)(F)F)nc1	126	0.059 µM	17 µM	18 µM	7.45 µM	> 20 µM	14 µM	> 20 µM	87%	83%	–
CC(=O)N[C@@H](C)/C=C/c1ccc(Oc2ccc3nc(C)sc3c2Cl)nc1	469	0.026 µM	> 20 µM	> 20 µM	12.2 µM	> 20 µM	> 20 µM	> 20 µM	87%	75%	–
CC(=O)N[C@@H](C)/C=C/c1ccc(Oc2ccc3nc(C(C)C)sc3c2F)nc1	17	0.0021 µM	> 20 µM	> 20 µM	0.035 µM	> 20 µM	> 20 µM	> 20 µM	84%	51%	–
CC(=O)N[C@@H](C)/C=C/c1ccc(Oc2ccc(OCCF)cc2Cl)nc1	> 537	0.186 µM	> 20 µM	> 20 µM	> 100 µM	> 20 µM	> 20 µM	> 20 µM	–	–	–
CC(=O)N[C@@H](C)/C=C/c1cnc(Oc2ccc(OCC3CC3)cc2Cl)s1	98	0.013 µM	> 20 µM	14 µM	1.27 µM	> 20 µM	3.5 µM	> 20 µM	–	–	–
